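Tested at 5 concentrations; 48 h exposure; 96-well plates; endpoints linearly interpolated, else capped at highest concentration. GI50: concentration for 50% inhibition of growth. TGI denotes the concentration required for complete inhibition of growth.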
How the values were obtained:
Experiment in all cases: growth of human tumour cells (NCI), 48 h
[1] = system: MOLT-4 leukemia
[2] = system: RXF 393 renal
[3] = system: DU-145 prostate
[4] = system: LOX IMVI melanoma
[5] = system: SNB-75 CNS
[6] = system: HCT-15 colon
[7] = system: SK-MEL-28 melanoma
[8] = system: CCRF-CEM leukemia
[9] = system: T-47D breast
[10] = system: OVCAR-4 ovarian
[11] = system: SR leukemia
[12] = system: UACC-257 melanoma
[13] = system: EKVX NSCLC
[14] = system: SN12C renal
[15] = system: KM12 colon
[16] = system: OVCAR-3 ovarian
[17] = system: NCI-H226 lung
[18] = system: SK-MEL-2 melanoma
[19] = system: CAKI-1 renal
[20] = system: SK-MEL-5 melanoma
[21] = system: NCI-H460 lung
[22] = system: SNB-19 CNS
[23] = system: HOP-62 NSCLC
[24] = system: HCT-116 colon
[25] = system: SW-620 colon
[26] = system: MCF7 breast
[27] = system: HL-60(TB) leukemia
[28] = system: HOP-92 NSCLC
[29] = system: MDA-MB-435
[30] = system: SF-295 CNS
[31] = system: UO-31 renal
[32] = system: U251 CNS
[33] = system: A498 renal
[34] = system: MALME-3M melanoma
[35] = system: OVCAR-5 ovarian
[36] = system: A549 NSCLC
[37] = system: NCI-H522 lung
[38] = system: SK-OV-3 ovarian
[39] = system: UACC-62 melanoma
[40] = system: OVCAR-8 ovarian
[41] = system: HT29 colon
[42] = system: K-562 leukemia
[43] = system: BT-549 breast
[44] = system: SF-268 CNS
[45] = system: COLO 205 colon
[46] = system: SF-539 CNS
[47] = system: IGROV1 ovarian
[48] = system: HCC-2998 colon
[49] = system: TK-10 renal
[50] = system: PC-3 prostate
[51] = system: M14 melanoma
[52] = system: RPMI-8226 leukemia
[53] = system: HS 578T breast
[54] = system: ACHN renal
[55] = system: 786-0 renal
[56] = system: MDA-MB-231 breast
[57] = system: NCI/ADR-RES ovarian

Which GI50 [1] does the source give for NS(=O)(=O)c1cccc(Nc2nc(SCC(=O)c3ccc([N+](=O)[O-])cc3)nc3ccccc23)c1 here?
Its GI50 is 12.9 µM.

What about the TGI [1] of the same molecule?
The TGI was 45.1 µM.

And the GI50 [2]?
The GI50 was 23.2 µM.

And the TGI [2]?
The TGI was greater than 100 µM.

And the GI50 [3]?
The GI50 was 28.7 µM.

And the TGI [3]?
Its TGI is greater than 100 µM.

What about the GI50 [4] of the same molecule?
Its GI50 is 31.4 µM.

What about the TGI [4] of the same molecule?
The TGI was greater than 100 µM.

And the GI50 [5]?
The GI50 was greater than 100 µM.

And the TGI [5]?
Its TGI is greater than 100 µM.

What about the GI50 [6] of the same molecule?
The GI50 was 38.7 µM.

What about the TGI [6] of the same molecule?
The TGI was greater than 100 µM.

And the GI50 [7]?
The GI50 was 34.9 µM.

What about the TGI [7] of the same molecule?
The TGI was greater than 100 µM.

What about the GI50 [8] of the same molecule?
The GI50 was 20.3 µM.

And the TGI [8]?
The TGI was greater than 100 µM.

What about the GI50 [9] of the same molecule?
Its GI50 is 9.95 µM.

What about the TGI [9] of the same molecule?
Its TGI is 65.4 µM.

What about the GI50 [10] of the same molecule?
Its GI50 is 26.6 µM.

And the TGI [10]?
The TGI was greater than 100 µM.

What about the GI50 [11] of the same molecule?
Its GI50 is 21.1 µM.

And the TGI [11]?
Its TGI is greater than 100 µM.

What about the GI50 [12] of the same molecule?
The GI50 was 30.1 µM.

What about the TGI [12] of the same molecule?
Its TGI is greater than 100 µM.

And the GI50 [13]?
The GI50 was 32.9 µM.

And the TGI [13]?
The TGI was greater than 100 µM.

And the GI50 [14]?
Its GI50 is 40.9 µM.

What about the TGI [14] of the same molecule?
Its TGI is greater than 100 µM.

What about the GI50 [15] of the same molecule?
Its GI50 is 37.6 µM.

What about the TGI [15] of the same molecule?
The TGI was greater than 100 µM.

What about the GI50 [16] of the same molecule?
The GI50 was 19.6 µM.

And the TGI [16]?
The TGI was 72.9 µM.

And the GI50 [17]?
The GI50 was 21.2 µM.

What about the TGI [17] of the same molecule?
Its TGI is 70.8 µM.

And the GI50 [18]?
Its GI50 is 14.4 µM.

What about the TGI [18] of the same molecule?
The TGI was 44 µM.

And the GI50 [19]?
The GI50 was 32.1 µM.

And the TGI [19]?
The TGI was greater than 100 µM.

What about the GI50 [20] of the same molecule?
Its GI50 is 22.3 µM.

What about the TGI [20] of the same molecule?
Its TGI is 88.1 µM.

What about the GI50 [21] of the same molecule?
The GI50 was 26.2 µM.

What about the TGI [21] of the same molecule?
The TGI was greater than 100 µM.

What about the GI50 [22] of the same molecule?
Its GI50 is greater than 100 µM.

And the TGI [22]?
Its TGI is greater than 100 µM.

And the GI50 [23]?
Its GI50 is 28.8 µM.

And the TGI [23]?
The TGI was greater than 100 µM.

And the GI50 [24]?
The GI50 was 31.3 µM.

What about the TGI [24] of the same molecule?
Its TGI is greater than 100 µM.

What about the GI50 [25] of the same molecule?
Its GI50 is 64.2 µM.

And the TGI [25]?
The TGI was greater than 100 µM.

What about the GI50 [26] of the same molecule?
The GI50 was 12.4 µM.

What about the TGI [26] of the same molecule?
Its TGI is greater than 100 µM.

What about the GI50 [27] of the same molecule?
Its GI50 is 22.2 µM.

And the TGI [27]?
Its TGI is 64.3 µM.

What about the GI50 [28] of the same molecule?
The GI50 was 14 µM.

And the TGI [28]?
The TGI was greater than 100 µM.

And the GI50 [29]?
Its GI50 is 44.9 µM.

What about the TGI [29] of the same molecule?
Its TGI is greater than 100 µM.

What about the GI50 [30] of the same molecule?
The GI50 was 38.3 µM.

And the TGI [30]?
The TGI was greater than 100 µM.

What about the GI50 [31] of the same molecule?
Its GI50 is 32.6 µM.

And the TGI [31]?
The TGI was greater than 100 µM.

What about the GI50 [32] of the same molecule?
The GI50 was 58.2 µM.

What about the TGI [32] of the same molecule?
Its TGI is greater than 100 µM.

And the GI50 [33]?
Its GI50 is 38.4 µM.

What about the TGI [33] of the same molecule?
Its TGI is greater than 100 µM.

What about the GI50 [34] of the same molecule?
The GI50 was 44.5 µM.

And the TGI [34]?
The TGI was greater than 100 µM.

And the GI50 [35]?
The GI50 was greater than 100 µM.

And the TGI [35]?
Its TGI is greater than 100 µM.

What about the GI50 [36] of the same molecule?
The GI50 was 32 µM.

What about the TGI [36] of the same molecule?
The TGI was greater than 100 µM.

And the GI50 [37]?
The GI50 was 20.1 µM.

And the TGI [37]?
The TGI was 89.6 µM.

What about the GI50 [38] of the same molecule?
The GI50 was 63.2 µM.

What about the TGI [38] of the same molecule?
Its TGI is greater than 100 µM.

What about the GI50 [39] of the same molecule?
The GI50 was 16.3 µM.

What about the TGI [39] of the same molecule?
The TGI was 37.3 µM.

And the GI50 [40]?
The GI50 was 25.3 µM.

What about the TGI [40] of the same molecule?
Its TGI is greater than 100 µM.

And the GI50 [41]?
The GI50 was 38.8 µM.

And the TGI [41]?
The TGI was greater than 100 µM.

And the GI50 [42]?
The GI50 was 23.6 µM.

What about the TGI [42] of the same molecule?
Its TGI is greater than 100 µM.

And the GI50 [43]?
Its GI50 is 11.3 µM.

What about the TGI [43] of the same molecule?
The TGI was 51.5 µM.

What about the GI50 [44] of the same molecule?
The GI50 was 43.7 µM.

And the TGI [44]?
The TGI was greater than 100 µM.

And the GI50 [45]?
Its GI50 is 40.3 µM.

And the TGI [45]?
Its TGI is greater than 100 µM.

And the GI50 [46]?
The GI50 was 31.3 µM.

What about the TGI [46] of the same molecule?
Its TGI is greater than 100 µM.

What about the GI50 [47] of the same molecule?
The GI50 was 24 µM.

What about the TGI [47] of the same molecule?
Its TGI is greater than 100 µM.

What about the GI50 [48] of the same molecule?
The GI50 was 31.7 µM.

And the TGI [48]?
Its TGI is greater than 100 µM.

And the GI50 [49]?
Its GI50 is 54.5 µM.

What about the TGI [49] of the same molecule?
Its TGI is greater than 100 µM.

What about the GI50 [50] of the same molecule?
Its GI50 is 20.2 µM.

And the TGI [50]?
Its TGI is greater than 100 µM.

What about the GI50 [51] of the same molecule?
Its GI50 is 31.6 µM.

What about the TGI [51] of the same molecule?
Its TGI is greater than 100 µM.

And the GI50 [52]?
Its GI50 is 16.1 µM.

And the TGI [52]?
Its TGI is 83 µM.

And the GI50 [53]?
The GI50 was 35.2 µM.

What about the TGI [53] of the same molecule?
The TGI was greater than 100 µM.

What about the GI50 [54] of the same molecule?
Its GI50 is 30.6 µM.

And the TGI [54]?
Its TGI is greater than 100 µM.

What about the GI50 [55] of the same molecule?
The GI50 was 48.5 µM.

And the TGI [55]?
The TGI was greater than 100 µM.

What about the GI50 [56] of the same molecule?
The GI50 was greater than 100 µM.

And the TGI [56]?
The TGI was greater than 100 µM.

And the GI50 [57]?
Its GI50 is greater than 100 µM.

And the TGI [57]?
Its TGI is greater than 100 µM.

— PubChem BioAssay (NCI)
